Experimental data from EP4800013A1, “PARG INHIBITOR” (Shanghai Qilu Pharmaceutical Research and Development …, priority 2023, dated 2025).

Test system: KURAMOCHI cells
Assay: Inhibition of proliferation of KURAMOCHI cells (CellTiter-Glo, intracellular ATP)
Assay type: cell-based
Conditions: 168 h, incubated for 7 days, read-out: IC50 against KURAMOCHI cells
Procedure: In this experiment, the inhibitory effect of the compounds of the present disclosure on the proliferation of the cancer cell line KURAMOCHI was evaluated by measuring intracellular ATP levels using a bioluminescent assay, and the half maximal inhibitory concentration (IC50) was determined.
RPMI 1640 medium (Cat. No. 11875-093), fetal bovine serum (10099-141), and 100× Pen/Strep (15070-063) were purchased from GIBCO. CellTiter-Glo Luminescent Cell Viability Assay reagent (Cat. No. G7573) was purchased from Promega.
• 1) Day 1: KURAMOCHI cells were counted using a cell counter and seeded into a 96-well culture plate at a density of 4000 cells per well in 100 µL medium. The plate was incubated overnight in an incubator (37°C, 5% CO2). • 2) Day 2: Using a D300e digital dispenser (TECAN), 500 nL of serially diluted test compounds of the present disclosure (starting at 10 µM, a total of 9 concentrations, 1:4 dilution) were added to the cells in the culture plate. The final concentration of DMSO was 0.5%. The cell culture plate was incubated for 7 days in a cell culture incubator (37°C, 5% CO2). Control group 1 received only medium and DMSO (100% inhibition group). Control group 2 received only DMSO (0% inhibition group). The final concentration of DMSO in both groups was 0.5%. • 3) Day 9: 100 µL of CellTiter-Glo reagent was added to each well. The plate was shaken at 500 rpm for 2 minutes, centrifuged at 1000 rpm for 1 minute, and then incubated at room temperature in the dark for 10 minutes to stabilize the luminescence signal. • 4) Luminescence signals were measured using an EnVision microplate reader (PerkinElmer). • 5) Data analysis was performed using GraphPad Prism 8. The IC50 values of the compounds of the present disclosure were calculated as follows. The CTG signal values were analyzed. The average inhibition rate of control group 1 (100% inhibition group) was set as the relative inhibition rate of 100%. The average inhibition rate of control group 2 (0% inhibition group) was set as the relative inhibition rate of 0%. The CTG signal values were converted into relative inhibition rates. The inhibition percentage (inhibition%) for each concentration of the compounds of the present disclosure was calculated according to the following formula: Inhibition% = (b−x)/(b−a)*100%; [formula] • a = CTG value (highest concentration), b = CTG value (blank well), x = CTG value (test well). • IC50 was calculated using GraphPad Prism 8. • (1) The concentration and inhibition rate corresponding to each well were recorded. Statistical calculation was performed using Log10 (compound concentration). • (2) The data were input into GraphPad Prism 8 and Analysis was selected. • (3) Nonlinear regression (curve fit) was selected. • (4) Log (inhibitor) vs. response - Variable slope was selected. • (5) The calculation formula was selected, and the calculation was performed according to the following formula: Y = Bottom + (Top - Bottom) / (1 + 10 ^ ((LogIC50 - X) * HillSlope)); X: log of dose or concentration; Y: response; Top and Bottom: maximum and minimum response. • (6) The IC50 values were calculated by fitting the data. Table 16: Inhibitory effect of the compounds of the present disclosure on the proliferation of KURAMOCHI cells

SMILES | IC50 [nM]
C=CCn1c(=O)n(-c2nnc(C(F)F)s2)c2cc(S(=O)(=O)NC3(C#N)CC3)cc(N3CCN(C(=O)[C@@H](C)CC)CC3)c21 [Compound 067W2] | 11
C=CCn1c(=O)n(-c2nnc(C(F)F)s2)c2cc(S(=O)(=O)NC3(C#N)CC3)cc(N3CCN(C(=O)[C@H](C)CC)CC3)c21 [Compound 067Wl] | 23
C=CCn1c(=O)n(-c2nnc(C(F)F)s2)c2cc(S(=O)(=O)NC3(C#N)CC3)cc(N3CCN(C(=O)C4CCCC4)CC3)c21 [Compound 067X] | 23
C=CCn1c(=O)n(-c2nnc(C(F)F)s2)c2cc(S(=O)(=O)NC3(C#N)CC3)cc(N3CCN(C(=O)C4(C)CC4)CC3)c21 [Compound 067Y] | 34
C=CCn1c(=O)n(-c2nnc(C(F)F)s2)c2cc(S(=O)(=O)NC3(CF)CC3)cc(N3CCN(C(=O)C(C)C)CC3)c21 [Compound 068A] | 4
C=CCn1c(=O)n(-c2nnc(C(F)F)s2)c2cc(S(=O)(=O)NC3(C)COC3)cc(N3CCN(C(=O)C(C)C)CC3)c21 [Compound 068B] | 17
C=CCn1c(=O)n(-c2nnc(C(F)(F)F)s2)c2cc(S(=O)(=O)NC3(C#N)CC3)cc(N3CCN(C(=O)C(C)C)CC3)c21 [Compound 070A] | 18
C=CCn1c(=O)n(-c2nnc(C(F)(F)F)s2)c2cc(S(=O)(=O)NC3(C#N)CC3)cc(N3CCN(C(=O)C(C)(C)O)CC3)c21 [Compound 070B] | 25
C=CCn1c(=O)n(-c2nnc(C(F)F)s2)c2cc(S(=O)(=O)NC3(C#N)CC3)cc(N3CCN(C(=O)C(C)(C)O)[C@H](C)C3)c21 [Compound 071C2] | 50
C=CCn1c(=O)n(-c2nnc(C(F)F)s2)c2cc(S(=O)(=O)NC3(C#N)CC3)cc(N3CCN(C(=O)C4CCOC4)CC3)c21 (centres unmarked) [Compound 072B] | 53
C=CCn1c(=O)n(-c2nnc(C(F)F)s2)c2cc(S(=O)(=O)NC3(C#N)CC3)cc(N3CCN(C(=O)C(C)(O)C(F)(F)F)CC3)c21 (centres unmarked) [Compound 073A] | 34
C=CCn1c(=O)n(-c2nnc(C(F)F)s2)c2cc(S(=O)(=O)NC3(C#N)CC3)cc(N3CCN(C(=O)C4(O)CCC4)CC3)c21 [Compound 073B] | 22
C=CCn1c(=O)n(-c2nnc(C(F)F)s2)c2cc(S(=O)(=O)NC3(C#N)CC3)cc(N3CCN([S+]([O-])C(C)(C)C)CC3)c21 (centres unmarked) [Compound 074A-11] | 4
C=CCn1c(=O)n(-c2nnc(C(F)F)s2)c2cc(S(=O)(=O)NC3(C#N)CC3)cc(N3CCN(S(=O)(=O)C(C)(C)C)CC3)c21 [Compound 074A] | 1
C=CCn1c(=O)n(-c2nnc(C(F)F)s2)c2cc(S(=O)(=O)NC3(C#N)CC3)cc(N3CCN(S(=O)(=O)C4(C)CC4)CC3)c21 [Compound 074B] | 3
C=CCn1c(=O)n(-c2nnc(C(F)F)s2)c2cc(S(=O)(=O)NC3(C#N)CC3)cc(N3CCN(S(=O)(=O)C4CCOC4)CC3)c21 (centres unmarked) [Compound 074C] | 13

Biological target: T1, PARG (Homo sapiens, UniProt Q86W56)
T1 construct: made in house
Assay: Enzymatic inhibitory activity against PARG, HTRF assay
Assay type: biochemical
Conditions: HTRF; PARylated PARP1 protein as substrate; 60 minutes at room temperature; read-out: IC50 against PARG enzyme
Procedure: In this experiment, the enzymatic inhibitory activity of the compounds of the present disclosure against PARG was determined using an HTRF (homogeneous time-resolved fluorescence) assay.
HTRF assay reagents were purchased from PerkinElmer (Cat. Nos. 61HISTLB and 610SAXLB). The purified protein was prepared in-house.
PARG enzyme reaction buffer: 50 mM Tris (pH 7.4), 0.1 mg/mL BSA, 3 mM EDTA, 0.4 mM EGTA, 1 mM DTT, 50 mM KCl, and 0.01% Tween 20.
• 1) Using an ultra-micro pipette, the compounds of the present disclosure were serially diluted (starting at 10 µM with 3- to 5-fold serial dilutions) and added to a 384-well reaction plate, with each concentration tested in duplicate wells. Control group 1 was added with 10 µM control compound (100% inhibition group). Control group 2 was added with DMSO (0% inhibition group). After compound addition, the 384-well plate was centrifuged at 1000 rpm for 1 minute. • 2) 2.5 µL of PARG protein was added to each well and incubated with the compounds of the present disclosure at room temperature for 15 minutes, followed by centrifugation at 1000 rpm for 1 minute. • 3) 2.5 µL of PARylated PARP1 protein was added to each well and incubated at room temperature for 60 minutes, followed by centrifugation at 1000 rpm for 1 minute. • 4) 5 µL of His-Tb & SA-XL665 HTRF assay reagents were added to each well and incubated at room temperature for 60 minutes, followed by centrifugation at 1000 rpm for 1 minute. • 5) […] were measured using a PHERAstar FSX microplate reader from BMG. • 6) Data analysis was performed using GraphPad Prism 8. The IC50 values of the compounds of the present disclosure were calculated as follows. […] The average value of duplicate wells in control group 2 (0% inhibition group) was set as the relative inhibition rate of 0%. The HTRF signal values were converted into relative inhibition rates. The IC50 values of the compounds were calculated by fitting the data to a four-parameter logistic model. Table 15: Enzymatic inhibitory activity of the compounds of the present disclosure against PARG

T1 sequence (Q86W56 whole entry): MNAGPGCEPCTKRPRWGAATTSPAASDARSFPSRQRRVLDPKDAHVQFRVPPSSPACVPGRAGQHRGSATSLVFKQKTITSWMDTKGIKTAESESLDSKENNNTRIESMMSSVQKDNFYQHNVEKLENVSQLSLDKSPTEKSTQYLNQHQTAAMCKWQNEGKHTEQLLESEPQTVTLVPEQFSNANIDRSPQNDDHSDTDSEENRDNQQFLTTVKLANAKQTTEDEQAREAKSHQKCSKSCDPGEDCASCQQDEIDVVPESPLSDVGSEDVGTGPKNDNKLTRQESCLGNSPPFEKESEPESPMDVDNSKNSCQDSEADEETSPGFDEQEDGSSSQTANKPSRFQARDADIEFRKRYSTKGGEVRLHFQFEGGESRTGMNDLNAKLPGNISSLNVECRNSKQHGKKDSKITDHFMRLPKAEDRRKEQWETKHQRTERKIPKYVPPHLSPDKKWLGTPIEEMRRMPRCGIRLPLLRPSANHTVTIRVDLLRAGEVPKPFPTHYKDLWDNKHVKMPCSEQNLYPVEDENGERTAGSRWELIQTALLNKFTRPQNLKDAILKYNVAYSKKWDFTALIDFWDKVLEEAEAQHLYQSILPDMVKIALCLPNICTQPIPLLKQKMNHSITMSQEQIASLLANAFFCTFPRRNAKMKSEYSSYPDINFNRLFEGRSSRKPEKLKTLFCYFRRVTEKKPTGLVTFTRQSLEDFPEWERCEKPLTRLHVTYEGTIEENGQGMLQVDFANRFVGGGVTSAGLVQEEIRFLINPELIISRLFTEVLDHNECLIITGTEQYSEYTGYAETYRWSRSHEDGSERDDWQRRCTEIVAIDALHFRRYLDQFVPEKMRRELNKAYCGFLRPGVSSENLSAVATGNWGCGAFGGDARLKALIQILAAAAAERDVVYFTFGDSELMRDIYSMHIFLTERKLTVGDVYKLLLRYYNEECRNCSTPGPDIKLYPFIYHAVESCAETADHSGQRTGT

SMILES | IC50 [nM]
C=CCn1c(=O)n(-c2nnc(C(F)F)s2)c2cc(S(=O)(=O)NC3(C#N)CC3)cc(N3CCN(C(=O)[C@@H](C)CC)CC3)c21 [Compound 067W2] | 13.1
C=CCn1c(=O)n(-c2nnc(C(F)F)s2)c2cc(S(=O)(=O)NC3(C#N)CC3)cc(N3CCN(C(=O)[C@H](C)CC)CC3)c21 [Compound 067Wl] | 19.7
C=CCn1c(=O)n(-c2nnc(C(F)F)s2)c2cc(S(=O)(=O)NC3(C#N)CC3)cc(N3CCN(C(=O)C4CCCC4)CC3)c21 [Compound 067X] | 21.1
C=CCn1c(=O)n(-c2nnc(C(F)F)s2)c2cc(S(=O)(=O)NC3(C#N)CC3)cc(N3CCN(C(=O)C4(C)CC4)CC3)c21 [Compound 067Y] | 21.2
C=CCn1c(=O)n(-c2nnc(C(F)F)s2)c2cc(S(=O)(=O)NC3(CF)CC3)cc(N3CCN(C(=O)C(C)C)CC3)c21 [Compound 068A] | 3.5
C=CCn1c(=O)n(-c2nnc(C(F)F)s2)c2cc(S(=O)(=O)NC3(C)COC3)cc(N3CCN(C(=O)C(C)C)CC3)c21 [Compound 068B] | 15.8
C=CCn1c(=O)n(-c2nnc(C(F)(F)F)s2)c2cc(S(=O)(=O)NC3(C#N)CC3)cc(N3CCN(C(=O)C(C)C)CC3)c21 [Compound 070A] | 15.3
C=CCn1c(=O)n(-c2nnc(C(F)(F)F)s2)c2cc(S(=O)(=O)NC3(C#N)CC3)cc(N3CCN(C(=O)C(C)(C)O)CC3)c21 [Compound 070B] | 20.3
C=CCn1c(=O)n(-c2nnc(C(F)F)s2)c2cc(S(=O)(=O)NC3(C#N)CC3)cc(N3CCN(C(=O)C(C)(C)O)[C@H](C)C3)c21 [Compound 071C2] | 8.9
C=CCn1c(=O)n(-c2nnc(C(F)F)s2)c2cc(S(=O)(=O)NC3(C#N)CC3)cc(N3CCN(C(=O)C4CCOC4)CC3)c21 (centres unmarked) [Compound 072B] | 15.9
C=CCn1c(=O)n(-c2nnc(C(F)F)s2)c2cc(S(=O)(=O)NC3(C#N)CC3)cc(N3CCN(C(=O)C(C)(O)C(F)(F)F)CC3)c21 (centres unmarked) [Compound 073A] | 30.6
C=CCn1c(=O)n(-c2nnc(C(F)F)s2)c2cc(S(=O)(=O)NC3(C#N)CC3)cc(N3CCN(C(=O)C4(O)CCC4)CC3)c21 [Compound 073B] | 4.5
C=CCn1c(=O)n(-c2nnc(C(F)F)s2)c2cc(S(=O)(=O)NC3(C#N)CC3)cc(N3CCN([S+]([O-])C(C)(C)C)CC3)c21 (centres unmarked) [Compound 074A-11] | 2.8
C=CCn1c(=O)n(-c2nnc(C(F)F)s2)c2cc(S(=O)(=O)NC3(C#N)CC3)cc(N3CCN(S(=O)(=O)C(C)(C)C)CC3)c21 [Compound 074A] | 0.8
C=CCn1c(=O)n(-c2nnc(C(F)F)s2)c2cc(S(=O)(=O)NC3(C#N)CC3)cc(N3CCN(S(=O)(=O)C4(C)CC4)CC3)c21 [Compound 074B] | 2.7
C=CCn1c(=O)n(-c2nnc(C(F)F)s2)c2cc(S(=O)(=O)NC3(C#N)CC3)cc(N3CCN(S(=O)(=O)C4CCOC4)CC3)c21 (centres unmarked) [Compound 074C] | 2.9
